In patent publication US10029014B2, “Synthesis of novel asymmetric bow-tie PAMAM dendrimer-based conjugates for tumor-targeting drug delivery” (priority 2013, dated 2018):
Where two headings read alike, the source gives them in different places.

Legend:
[1] = in vitro; settings: human
[2] = system: MX-1; test: Cytotoxicity assay, MTT method, MX-1 cells; settings: read-out: Cytotoxicity (IC50, nM) MX-1
[3] = system: ID-8; test: Cytotoxicity assay, MTT method, ID-8 cells; settings: read-out: Cytotoxicity (IC50, nM) ID-8
[4] = system: WI-38; test: Cytotoxicity assay, MTT method, WI-38 cells; settings: read-out: Cytotoxicity (IC50, nM) WI-38; 72 hours of drug exposure at 37° C. under 5% CO2
[5] = 72 hours of drug exposure at 37° C. under 5% CO2

| IC50 at 72 h [1] | SMILES | IC50 ([2]; Homo sapiens, MX1, 72 h) | IC50 ([3]; Mus musculus, ID8, 72 h) | IC50 [2, 5] | IC50 [3, 5] | IC50 [4] |
| --- | --- | --- | --- | --- | --- | --- |
| 175 nM | CC(=O)O[C@H]1C(=O)[C@@]2(C)[C@H]([C@H](OC(=O)c3ccccc3)[C@]3(O)C[C@H](OC(=O)[C@H](O)[C@@H](NC(=O)c4ccccc4)c4ccccc4)C(C)=C1C3(C)C)[C@]1(OC(C)=O)CO[C@@H]1C[C@@H]2O [Paclitaxel] | 3.83 nM | 21.2 nM | – | – | – |
| – | CC(=O)O[C@@]12CO[C@@H]1C[C@H](O)[C@@]1(C)C(=O)[C@H](OC(=O)C3CC3)C3=C(C)[C@@H](OC(=O)[C@H](O)[C@H](C=C(C)C)NC(=O)OC(C)(C)C)C[C@@](O)([C@@H](OC(=O)c4ccccc4)[C@H]21)C3(C)C [SB-T-1214] | – | – | 2.9 nM | 1.89 nM | 4.14 nM |
